The compounds below were run on Phakopsora pachyrhizi (assay: Phakopsora pachyrhizi Test in Soybean (preventive spray)). Settings: preventive spray on Soybean plants, inoculated one day after treatment, disease severity vs untreated control.
Format: in vivo
Description: Example 7: Phakopsora pachyrhizi Test in Soybean Compounds were dissolved in 2% dimethyl sulfoxide/acetone and then mixed with water containing an emulsifier to a calibrated spray volume of 50 mL. This 50 mL spray solution was poured into spray bottles for further applications. To test the preventive activity of compounds, healthy young Soybean plants, raised in the greenhouse, were sprayed with the active compound preparation at the stated application rates inside the spray cabinets using hollow cone nozzles. One day after treatment, the plants were inoculated with a spore suspension containing 2×10^5Phakopsora pachyrhizi conidia. The inoculated plants were then kept in a greenhouse chamber at 22-24° C. temperature and 80-90% relative humidity for disease expression. A visual assessment of the compound's performance was carried out by rating the disease severity (0-100% scale) on treated plants 3, 7, 10 and 15 days after application. Efficacy (% control) of the compounds was calculated by comparing the disease rating in the treatment with the one of the untreated control. The sprayed plants were also assessed for plant compatibility by recording symptoms like necrosis, chlorosis and stunting.
With `O=C(C[S+]([O-])c1ccc(Cl)cc1)c1ccc(-c2noc(C(F)(F)F)n2)cc1` (centres unmarked) [Compound 78, 2-((4-chlorophenyl)sulfinyl)-1-(4-(5-(trifluoromethyl)-1,2,4-oxadiazol-3-yl)phenyl)ethan-1-one] the pest or weed control at 500 ppm was no less than 70%.
`Cc1cccc(OCC(=O)c2ccc(-c3noc(C(F)(F)F)n3)cc2)c1` [Compound 10, 2-(m-tolyloxy)-1-(4-(5-(trifluoromethyl)-1,2,4-oxadiazol-3-yl)phenyl)ethan-1-one] gave a pest or weed control at 500 ppm of no less than 70%.
With `O=C(CS(=O)(=O)C1CCCCC1)c1ccc(-c2noc(C(F)(F)F)n2)cc1` [Compound 100, 2-(cyclohexylsulfonyl)-1-(4-(5-(trifluoromethyl)-1,2,4-oxadiazol-3-yl)phenyl)ethan-1-one] the pest or weed control at 500 ppm was no less than 70%.
For `O=C(COc1ccc(F)nc1)c1ccc(-c2noc(C(F)(F)F)n2)cc1` [Compound 47, 2-((6-fluoropyridin-3-yl)oxy)-1-(4-(5-(trifluoromethyl)-1,2,4-oxadiazol-3-yl)phenyl)ethan-1-one], the pest or weed control at 500 ppm was no less than 70%.
With `O=C(CSc1ccccc1F)c1ccc(-c2noc(C(F)(F)F)n2)cc1` [Compound 65, 2-((2-fluorophenyl)thio)-1-(4-(5-(trifluoromethyl)-1,2,4-oxadiazol-3-yl)phenyl)ethan-1-one] the pest or weed control at 500 ppm was no less than 70%.
With `COc1ccc(CS(=O)(=O)CC(=O)c2ccc(-c3noc(C(F)(F)F)n3)cc2)cc1` [Compound 98, 2-((4-methoxybenzyl)sulfonyl)-1-(4-(5-(trifluoromethyl)-1,2,4-oxadiazol-3-yl)phenyl)ethan-1-one] the pest or weed control at 500 ppm was no less than 70%.
Work on `O=C(CS(=O)(=O)c1ccc(Cl)c(Cl)c1)c1ccc(-c2noc(C(F)(F)F)n2)cc1` [Compound 94, 2-((3,4-dichlorophenyl)sulfonyl)-1-(4-(5-(trifluoromethyl)-1,2,4-oxadiazol-3-yl)phenyl)ethan-1-one] yielded a pest or weed control at 500 ppm of no less than 70%.
For `O=C(CSc1cccc(Cl)c1)c1ccc(-c2noc(C(F)(F)F)n2)cc1` [Compound 54, 2-((3-chlorophenyl)thio)-1-(4-(5-(trifluoromethyl)-1,2,4-oxadiazol-3-yl)phenyl)ethan-1-one], the pest or weed control at 500 ppm was no less than 70%.
Work on `Cc1ccc(SCC(=O)c2ccc(-c3noc(C(F)(F)F)n3)cc2)cc1` [Compound 22, 2-(p-tolylthio)-1-(4-(5-(trifluoromethyl)-1,2,4-oxadiazol-3-yl)phenyl)ethan-1-one] yielded a pest or weed control at 500 ppm of no less than 70%.
Work on `Cc1ccc(Cl)c(OCC(=O)c2ccc(-c3noc(C(F)(F)F)n3)cc2)c1` [Compound 33, 2-(2-chloro-5-methylphenoxy)-1-(4-(5-(trifluoromethyl)-1,2,4-oxadiazol-3-yl)phenyl)ethan-1-one] yielded a pest or weed control at 500 ppm of no less than 70%.
Compound `O=C(CNc1ccccc1F)c1ccc(-c2noc(C(F)(F)F)n2)cc1` [Compound 29, 2-((2-fluorophenyl)amino)-1-(4-(5-(trifluoromethyl)-1,2,4-oxadiazol-3-yl)phenyl)ethan-1-one] has a pest or weed control at 500 ppm of no less than 70%.
`COc1cccc(SCC(=O)c2ccc(-c3noc(C(F)(F)F)n3)cc2)c1` [Compound 14, 2-((3-methoxyphenyl)thio)-1-(4-(5-(trifluoromethyl)-1,2,4-oxadiazol-3-yl)phenyl)ethan-1-one] showed a pest or weed control at 500 ppm of no less than 70%.
Compound `Cc1cc(F)cc(OCC(=O)c2ccc(-c3noc(C(F)(F)F)n3)cc2)c1` [Compound 41, 2-(3-fluoro-5-methylphenoxy)-1-(4-(5-(trifluoromethyl)-1,2,4-oxadiazol-3-yl)phenyl)ethan-1-one] has a pest or weed control at 500 ppm of no less than 70%.
`Cn1ccc(OCC(=O)c2ccc(-c3noc(C(F)(F)F)n3)cc2)n1` [Compound 50, 2-((1-methyl-1H-pyrazol-3-yl)oxy)-1-(4-(5-(trifluoromethyl)-1,2,4-oxadiazol-3-yl)phenyl)ethan-1-one] gave a pest or weed control at 500 ppm of no less than 70%.
Work on `O=C(CSc1ccc(Cl)cc1)c1ccc(-c2noc(C(F)(F)F)n2)cc1` [Compound 53, 2-((4-chlorophenyl)thio)-1-(4-(5-(trifluoromethyl)-1,2,4-oxadiazol-3-yl)phenyl)ethan-1-one] yielded a pest or weed control at 500 ppm of no less than 70%.
For `O=C(COc1cccc(Cl)c1)c1ccc(-c2noc(C(F)(F)F)n2)cc1` [Compound 35, 2-(3-chlorophenoxy)-1-(4-(5-(trifluoromethyl)-1,2,4-oxadiazol-3-yl)phenyl)ethan-1-one], the pest or weed control at 500 ppm was no less than 70%.
In the case of `Cc1cccc(SCC(=O)c2ccc(-c3noc(C(F)(F)F)n3)cc2)c1` [Compound 67, 2-(m-tolylthio)-1-(4-(5-(trifluoromethyl)-1,2,4-oxadiazol-3-yl)phenyl)ethan-1-one], the pest or weed control at 500 ppm is reported as no less than 70%.
Work on `Cc1ccc([S+]([O-])CC(=O)c2ccc(-c3noc(C(F)(F)F)n3)cc2)cc1` (centres unmarked) [Compound 86, 2-(p-tolylsulfinyl)-1-(4-(5-(trifluoromethyl)-1,2,4-oxadiazol-3-yl)phenyl)ethan-1-one] yielded a pest or weed control at 500 ppm of no less than 70%.
With `O=C(C[S+]([O-])c1cccc(C(F)(F)F)c1)c1ccc(-c2noc(C(F)(F)F)n2)cc1` (centres unmarked) [Compound 85, 1-(4-(5-(trifluoromethyl)-1,2,4-oxadiazol-3-yl)phenyl)-2-((3-(trifluoromethyl)phenyl)sulfinyl)ethan-1-one] the pest or weed control at 500 ppm was no less than 70%.
`O=C(COc1ccc(Cl)cc1Cl)c1ccc(-c2noc(C(F)(F)F)n2)cc1` [Compound 20, 2-(2,4-dichlorophenoxy)-1-(4-(5-(trifluoromethyl)-1,2,4-oxadiazol-3-yl)phenyl)ethan-1-one] showed a pest or weed control at 500 ppm of no less than 70%.
`COc1ccc(CSCC(=O)c2ccc(-c3noc(C(F)(F)F)n3)cc2)cc1` [Compound 57, 2-((4-methoxybenzyl)thio)-1-(4-(5-(trifluoromethyl)-1,2,4-oxadiazol-3-yl)phenyl)ethan-1-one] showed a pest or weed control at 500 ppm of no less than 70%.
With `O=C(COc1ccccc1F)c1ccc(-c2noc(C(F)(F)F)n2)cc1` [Compound 1, 2-(2-fluorophenoxy)-1-(4-(5-(trifluoromethyl)-1,2,4-oxadiazol-3-yl)phenyl)ethan-1-one] the pest or weed control at 500 ppm was no less than 70%.
Work on `COc1ccc(OCC(=O)c2ccc(-c3noc(C(F)(F)F)n3)cc2)cc1` [Compound 2, 2-(4-methoxyphenoxy)-1-(4-(5-(trifluoromethyl)-1,2,4-oxadiazol-3-yl)phenyl)ethan-1-one] yielded a pest or weed control at 500 ppm of no less than 70%.
`O=C(COc1ccnc(Cl)c1)c1ccc(-c2noc(C(F)(F)F)n2)cc1` [Compound 44, 2-((2-chloropyridin-4-yl)oxy)-1-(4-(5-(trifluoromethyl)-1,2,4-oxadiazol-3-yl)phenyl)ethan-1-one] showed a pest or weed control at 500 ppm of no less than 70%.
`O=C(CNc1ccc(C(F)(F)F)cc1)c1ccc(-c2noc(C(F)(F)F)n2)cc1` [Compound 28, 1-(4-(5-(trifluoromethyl)-1,2,4-oxadiazol-3-yl)phenyl)-2-((4-(trifluoromethyl)phenyl)amino)ethan-1-one] showed a pest or weed control at 500 ppm of no less than 70%.
`COc1ccc(SCC(=O)c2ccc(-c3noc(C(F)(F)F)n3)cc2)cc1` [Compound 23, 2-((4-methoxyphenyl)thio)-1-(4-(5-(trifluoromethyl)-1,2,4-oxadiazol-3-yl)phenyl)ethan-1-one] showed a pest or weed control at 500 ppm of no less than 70%.
Compound `COc1ccccc1SCC(=O)c1ccc(-c2noc(C(F)(F)F)n2)cc1` [Compound 63, 2-((2-methoxyphenyl)thio)-1-(4-(5-(trifluoromethyl)-1,2,4-oxadiazol-3-yl)phenyl)ethan-1-one] has a pest or weed control at 500 ppm of no less than 70%.
`O=C(COc1cccnc1Cl)c1ccc(-c2noc(C(F)(F)F)n2)cc1` [Compound 46, 2-((2-chloropyridin-3-yl)oxy)-1-(4-(5-(trifluoromethyl)-1,2,4-oxadiazol-3-yl)phenyl)ethan-1-one] showed a pest or weed control at 500 ppm of no less than 70%.
In the case of `Cc1ccc(C)c(OCC(=O)c2ccc(-c3noc(C(F)(F)F)n3)cc2)c1` [Compound 16, 2-(2,5-dimethylphenoxy)-1-(4-(5-(trifluoromethyl)-1,2,4-oxadiazol-3-yl)phenyl)ethan-1-one], the pest or weed control at 500 ppm is reported as no less than 70%.
With `O=C(CS(=O)(=O)c1ccc(Cl)cc1)c1ccc(-c2noc(C(F)(F)F)n2)cc1` [Compound 95, 2-((4-chlorophenyl)sulfonyl)-1-(4-(5-(trifluoromethyl)-1,2,4-oxadiazol-3-yl)phenyl)ethan-1-one] the pest or weed control at 500 ppm was no less than 70%.
Work on `O=C(COc1ccc(F)cc1Cl)c1ccc(-c2noc(C(F)(F)F)n2)cc1` [Compound 19, 2-(2-chloro-4-fluorophenoxy)-1-(4-(5-(trifluoromethyl)-1,2,4-oxadiazol-3-yl)phenyl)ethan-1-one] yielded a pest or weed control at 500 ppm of no less than 70%.
`O=C(CN1CCOCC1)c1ccc(-c2noc(C(F)(F)F)n2)cc1` [Compound 136, 2-morpholino-1-(4-(5-(trifluoromethyl)-1,2,4-oxadiazol-3-yl)phenyl)ethan-1-one] showed a pest or weed control at 500 ppm of no less than 70%.
In the case of `O=C(CS(=O)(=O)c1ccc(F)c(F)c1)c1ccc(-c2noc(C(F)(F)F)n2)cc1` [Compound 96, 2-((3,4-difluorophenyl)sulfonyl)-1-(4-(5-(trifluoromethyl)-1,2,4-oxadiazol-3-yl)phenyl)ethan-1-one], the pest or weed control at 500 ppm is reported as no less than 70%.
`O=C(COc1ccc(Cl)cc1)c1ccc(-c2noc(C(F)(F)F)n2)cc1` [Compound 6, 2-(4-chlorophenoxy)-1-(4-(5-(trifluoromethyl)-1,2,4-oxadiazol-3-yl)phenyl)ethan-1-one] gave a pest or weed control at 500 ppm of no less than 70%.
Compound `O=C(COc1cccc(C(F)(F)F)c1)c1ccc(-c2noc(C(F)(F)F)n2)cc1` [Compound 40, 1-(4-(5-(trifluoromethyl)-1,2,4-oxadiazol-3-yl)phenyl)-2-(3-(trifluoromethyl)phenoxy)ethan-1-one] has a pest or weed control at 500 ppm of no less than 70%.

Reference: patent US12677832B2, “Oxadiazole compounds for controlling or preventing phytopathogenic fungi” (PI INDUSTRIES LTD., priority 2019, dated 2026)
